How the values were obtained:
[1] = tested on: STC-1 cells; experiment: Calcium flux (FURA2) in STC-1 cells; type: cell-based; conditions: 100 uM, no extracellular Ca2+
Protocol: For the experiments summarized in FIG. 39 the method is: Cells grown on collagen coated glass slides were preloaded with the calcium indicator, FURA2, for 60 minutes. Buffer containing either FAHFAs or vehicle was incubated with cells for a period of 3 minutes followed by washout with buffer alone. FURA2 fluorescence, an indicator of Calcium mobilization, was monitored continuously before and during the addition of compounds and throughout the washout period. Results were analyzed with metamorph software. Calcium Flux in STC-1 (intestinal enteroendocrine) cells in the absence of extracellular calcium (calcium free buffer). Ligands were injected after 3 minutes and washed out after an additional 3 minutes. The data presented is the average fold change in Fura2 fluorescence for 10 individual STC-1 cells in the same field.
DMSO control had no effect. Top panel is linoleic acid, a positive control. Middle panel 9-PAHSA (100 uM). Bottom panel 5-PAHSA (100 μM). These experiments were done in the absence of extracellular calcium.

[2] = tested on: insulin-resistant high-fat fed mice; experiment: Insulin tolerance test in HFD-fed mice; type: in vivo, mouse; conditions: for baseline glycemia: 2.5-3 hours after administration; for area above the insulin response curve / insulin sensitivity: ITT
Protocol: Area under the curve (AUC), *p<0.05 compared to vehicle. […] Area above the curve (AAC). *p<0.05 compared to vehicle. […] Area under the curve (AUC). *p<0.05 compared to vehicle. FIG. 53D is a bar graph showing serum insulin levels 5 min post glucose challenge in chow-fed mice gavaged with 5-PAHSA or vehicle (glucose values shown in FIG. 53C). n=12-14 per group, *p<0.05 compared to vehicle by t-test. FIG. 53E is a bar graph showing serum GLP-1 levels 5 min post glucose challenge from chow-fed mice gavaged with 5-PAHSA or vehicle (glucose levels in FIG. 53C). n=12-14 per group, *p<0.05 compared to vehicle by t-test. FIG. 53F are bar graphs showing insulin secretion from primary human islets from two independent donors. Islets were incubated with low (2.5 mM) or high (20 mM) glucose ex vivo in the presence of 5-PAHSA (20 μM) or vehicle control. n=100 islets per condition, *p<0.05 compared to control 2.5 mM glucose, ^#p<0.05 compared to respective treatments at 2.5 mM glucose, ^$p<0.05 compared to control or diluents at 20 mM glucose by t-test. FIG. 53G are bar graphs showing active GLP-1 secretion from STC-1 cells in response to 5-PAHSA (5-P), 9-PAHSA (9P), […] (LA), GW9508 (GW) or vehicle control (DMSO). n=4 per group, *p<0.05 compared to vehicle by t-test. All data are mean±s.e.m. See also FIG. 56.

[3] = tested on: 3T3-L1 adipocytes; experiment: Glucose transport in 3T3-L1 adipocytes; type: cell-based
Protocol: FIGS. 54A-D show glucose uptake regulation by PAHSAs and Glut4 translocation via GPR120. FIG. 54A is a bar graph showing insulin-stimulated glucose transport in 3T3-L1 adipocytes treated 9-PAHSA (20 μM) or vehicle (DMSO) control for 6 days. n=6 per group, *p<0.05 compared to vehicle by t-test. FIG. 54B is a bar graph showing insulin (10 nM)-stimulated glucose transport in 3T3-L1 adipocytes transfected with control siRNA or GPR120 siRNA and treated 5-PAHSA (10 μM), 9-PAHSA (10 μM) or vehicle (DMSO) control for 2 days. n=3 per group, *p<0.05 compared to DMSO+control siRNA or GPR120 siRNA alone, $p<0.05 compared to control siRNA or GPR120 siRNA+insulin and GPR120 siRNA+insulin+PAHSA by t-test. FIG. 54C is a panel showing Glut4 plasma membrane translocation in 3T3-L1 adipocytes transfected with control siRNA or GPR120 siRNA and treated with 9-PAHSA in the presence or absence of insulin. 6 separate experiments were carried out without RNAi and 3 experiments with RNAi; each experiment had greater than 50 cells per experimental condition. FIG. 54D is a bar graph showing quantification of Glut4 translocation in panel C. *p<0.05 compared to control siRNA+insulin and GPR120 siRNA+insulin+9-PAHSA by t-test. All data are presented as mean±s.e.m. See also FIG. 57.
For all cell culture experiments, FAHFAs were solubilized in DMSO at a concentration of 20 mM and further diluted in assay buffer or cell culture media to the working concentrations indicated for each assay. In all instances an equivalent volume of vehicle (DMSO) was added to control treatment groups.

[4] = tested on: Ins1 cells; experiment: Insulin release in INS1 cells; type: cell-based; conditions: 25 mM glucose in the media
Protocol: Ins1 cells (FIG. 21) or primary rat islet cells (FIG. 22) were seeded in 24 well-plates [˜10^6 cells/well]. At confluence, cells were incubated with Low Serum [2.5%] and Low Glucose [2.5 mM] media for 12 hours. Next, cells were incubated with KRB buffer for 1 h and stimulated with glucose in the presence of 5-PAHSA (FIG. 21) or 9-PAHSA (FIG. 21) for 45 min in KRB. At the end of the stimulation, 100 μL of media was collected and 10 μL was used to quantitate the amount of insulin released by ELISA. Treatment Conditions for FIGS. 21 and 22 were: • 5-PAHSA or 9-PAHSA [Stock]=20.0 mM [10.76 mg/mL Methanol] • A] 1 uM=0.3 uL/6 mL [Amount of methanol/mL=0.05 uL] • B] 5 uM=1.5 uL/6 mL [Amount of methanol/mL=0.25 uL] • C] 10 uM=3.0 uL/6 mL [Amount of methanol/mL=0.50 uL] • D] 20 uM=6.0 uL/6 mL [Amount of methanol/mL=1.00 uL]
INS-1 cells were seeded in 24 well-plates [˜10^6 cells/well] and at 80% confluence, were cultured overnight in RPMI 1640 medium containing 2.5 mM glucose and 2.5% fetal bovine serum supplemented with 100 IU/ml penicillin and […], 1 mM sodium pyruvate, 2-mercaptoethanol (50 μM) and 10 mM HEPES (pH 7.4). […] At the end of the stimulation supernatant was collected and insulin released into the medium was quantified by ELISA as per manufacturer's protocol. […]

[5] = FAHFA hydrolysis assay (9-PAHSA to 9-HSA), liver lysate; conditions: liver lysate 1 mg/ml protein, 100 μM, 37° C., two hours
Protocol: To establish whether or not FAHFA can be enzymatically degraded, an LC-MS-based in vitro activity assay was developed to measure the hydrolysis of 9-PAHSA to 9-HSA. […] Liver lysate (1 mg/ml protein) was incubated with 100 μM 9-PAHSA at 37° C. for two hours. The reaction mixture was then extracted with one volume ethyl acetate, concentrated under nitrogen gas stream, and reconstituted in 1:1 chloroform:methanol for MS analysis.

SMILES	Ca2+ flux from intracellular stores [1]	baseline glycemia [2]	area above the insulin response curve [2]	insulin sensitivity [2]	glucose transport ([3]; basal state)	insulin secretion [4]	hydrolysis of 9-PAHSA to 9-HSA [5]	insulin-stimulated glucose transport [3]
CCCCCCCCCCCCCCCC(=O)OC(CCCCCCCCC)CCCCCCCC(=O)O (stereo not shown) [9-PAHSA, palmitoyl-9-hydroxystearic acid]	induce Ca2+ flux from intracellular stores	lowered baseline glycemia	more than a doubling	improved insulin sensitivity	modestly increased glucose transport	potentiate insulin secretion	Substantial 9-HSA production	
CCCCCCCCCCCCCCCC(=O)OC(CCCCCCCCCCCCC)CCCC(=O)O (stereo not shown) [5-PAHSA]	induce Ca2+ flux from intracellular stores	lowered baseline glycemia	more than a doubling	improved insulin sensitivity		potentiate insulin secretion		enhanced insulin-induced glucose transport
